{"source": "patent US20240016881A1", "about": "“Coronavirus Therapy” (priority 2020, published 2024)", "key": {"[1]": {"assay": "ELISA binding of NDX-90 peptide to cardiolipin-coated microtitre plate", "from_the_text": "Each mean and standard deviation is for three observations."}, "[2]": {"assay": "Fasting plasma glucagon in subjects with Type 2 diabetes treated with NDX-90 peptide", "assay_type": "in vivo, human", "from_the_text": "The inventor then measured the effect of NDX-90 peptide treatment over several months on fasting plasma glucagon levels in subjects with Type 2 diabetes."}, "[3]": {"tested_on": "isolated rat islet cultures", "assay": "Glucagon levels secreted from isolated rat islet cultures, medium plus NDX-90 vs medium alone", "assay_type": "cell-based", "conditions": "for Glucagon level (pg/ml) Medium plus NDX-90: NDX-90 1 μg/ml, 11 mmol/L glucose; for Percentage reduction of glucagon secretion: vs medium alone", "method": "Isolated islets were suspended in RPMI 1640 containing 11 mmol/L (200 mg/dL) glucose and 10% FCS. The glucose concentration simulates a diabetic environment. NDX-90 was dissolved in the culture medium and added to the appropriate wells at a final concentration of 1 μg/ml. After the specified incubation times, samples were removed for glucagon measurements using Quantikine ELISA Immunoassay (R&D Systems).\nThe inventor measured glucagon levels secreted from isolated rat islet cultures, to determine whether NDX-90 was capable of reducing glucagon levels."}, "soluble ACE2": {"tested_on": "soluble ACE2", "assay": "Soluble ACE2 ELISA in cultures of human islet cells from Type 2 diabetes tissue donors", "assay_type": "cell-based", "conditions": "for % reduction soluble ACE2 100-(T/Cx100): vs control cultures", "method": "The inventor next measured the effect of NDX-90 peptide on soluble ACE2 levels in cultures of human islet cells from Type 2 diabetes tissue donors. Human pancreatic islet cells were cultured in 24-well tissue culture plates. Two series of cultures were set up. NDX-90 peptide solution was added to one series and an equivalent amount of culture medium was added to the second series. Supernatant samples were removed from the test and control cultures at 4, 24 and 48 hours after addition of the treatment. Supernatant samples were removed only once from each test and control well for each time point. The samples were tested for soluble ACE2 by the use of a commercial ELISA kit according to the manufacturer's instructions."}, "[4]": {"tested_on": "buccal tissue culture inserts", "assay": "Buccal tissue permeability (cell permeation, HPLC peak area of supernatant)", "assay_type": "in vitro ADME", "method": "Buccal tissue culture inserts were transferred from the original tissue culture 24-well plates (maintained at 4° C. in sealed bags containing 5% CO2) under sterile conditions into wells of a fresh 24-well plate containing 1.0 ml serum free medium pre-warmed to 37° C. The plate was incubated in a humidified incubator at 37° C. in a 5% CO2 atmosphere for one hour as a pre-equilibration procedure prior to dosing. After removal from the incubator, any culture medium over the surface of the tissue was carefully removed and replaced with 40 μL of appropriately diluted peptide solution in serum free culture medium. The plate was incubated for further 30 minutes at 37° C. in a 5% CO2 atmosphere. The plate was removed from the incubator and supernatant samples were taken and analysed by HPLC. The main peak areas of the supernatants were compared to those of the pre-incubation stock samples.\nThe inventor next measured buccal tissue permeability of NDX-90 peptide, to determine its uptake."}}, "note": "Where “and” joins values, the source holds several entries; their conditions need not be identical. Identical values can stand only once. Where no end group is shown, it is not given here.", "data": [{"sequence": "QQYNSYPLT (also: dimer) [NDX-90, b142 says NDX-90 is a dimer]", "values": [{"measurement": "Binding to cardiolipin", "setting": "[1]", "value": "has the capacity to bind to cardiolipin"}, {"measurement": "Ratio Test/Control (cardiolipin / alcohol optical density)", "setting": "[1]", "value": 2.23}, {"measurement": "Optical density reading in ELISA, cardiolipin-coated plate", "setting": "[1]; mean and standard deviation for three observations", "value": "0.254 ± 0.012"}, {"measurement": "Improvement in fasting glucagon towards normality", "setting": "[2]; 9.61 pg/ml relative to literature excess of 12.2 pg/ml in Type 2 diabetes vs nondiabetic controls", "value": 78.8, "unit": "%"}, {"measurement": "Difference baseline vs treated fasting plasma glucagon", "setting": "[2]; day 1 vs mean of days 43, 99 and 113, P = 0.009, listed as NDX-90 peptide", "value": 9.61, "unit": "pg/mL"}, {"measurement": "Baseline ± sd fasting plasma glucagon", "setting": "[2]; mean baseline on day 1, n = 23, Type 2 diabetes", "value": "103 ± 38.3", "unit": "pg/mL"}, {"measurement": "Treated ± sd fasting plasma glucagon", "setting": "[2]; mean of measurements on days 43, 99 and 113, n = 23, Type 2 diabetes", "value": "93.47 ± 32.3", "unit": "pg/mL"}, {"measurement": "Difference (pg/ml) medium alone vs medium plus NDX-90", "setting": "[3]; 4 hours", "value": 203.0, "unit": "pg/mL"}, {"measurement": "Glucagon level (pg/ml) Medium plus NDX-90", "setting": "[3]; 4 hours", "value": "419.3 ± 2.5", "unit": "pg/mL"}, {"measurement": "Percentage reduction of glucagon secretion", "setting": "[3]; 4 hours", "value": "32% and 32.4%"}, {"measurement": "Difference (pg/ml) medium alone vs medium plus NDX-90", "setting": "[3]; 24 hours", "value": 102.9, "unit": "pg/mL"}, {"measurement": "Glucagon level (pg/ml) Medium plus NDX-90", "setting": "[3]; 24 hours", "value": "149.6 ± 6.7", "unit": "pg/mL"}, {"measurement": "Percentage reduction of glucagon secretion", "setting": "[3]; 24 hours", "value": 40.9, "unit": "%"}, {"measurement": "Glucagon level (pg/ml) Medium plus NDX-90", "setting": "[3]; 48 hours", "value": "63.4 ± 1.3", "unit": "pg/mL"}, {"measurement": "Percentage reduction of glucagon secretion", "setting": "[3]; 48 hours", "value": 0, "unit": "%"}, {"measurement": "% reduction soluble ACE2 100-(T/Cx100)", "setting": "soluble ACE2; 4 hours", "value": 5.3, "unit": "%"}, {"measurement": "% reduction soluble ACE2 100-(T/Cx100)", "setting": "soluble ACE2; 4 hours, listed as NDX-90 Peptide", "value": 5.3, "unit": "%"}, {"measurement": "% reduction soluble ACE2 100-(T/Cx100)", "setting": "soluble ACE2; 24 hours", "value": 6.25, "unit": "%"}, {"measurement": "% reduction soluble ACE2 100-(T/Cx100)", "setting": "soluble ACE2; 24 hours, listed as NDX-90 Peptide", "value": 6.25, "unit": "%"}, {"measurement": "Reduction of soluble ACE2", "setting": "soluble ACE2; 48 hours", "value": "No further reduction"}, {"measurement": "Transmissibility across / uptake by buccal tissue", "setting": "[4]", "value": "efficient uptake"}, {"measurement": "Transmissibility %", "setting": "[4]; Table 5 screening, 30 minutes", "value": 94.1, "unit": "%"}, {"measurement": "Peak Area by HPLC of Peptides in solution Pre-overlay", "setting": "[4]; Table 5 screening, stock before incubation", "value": 4142}, {"measurement": "Peak Area by HPLC of Peptides in solution Post-overlay", "setting": "[4]; Table 5 screening, supernatant after 30 minutes at 37° C.", "value": 243}, {"measurement": "Peak Area by HPLC R1", "setting": "[4]; Table 6, replicate culture 1", "value": 276}, {"measurement": "Transmissibility T % (R1)", "setting": "[4]; Table 6, replicate culture 1", "value": 93.3, "unit": "%"}, {"measurement": "Peak Area by HPLC R3", "setting": "[4]; Table 6, replicate culture 3", "value": 0}, {"measurement": "Transmissibility T % (R3)", "setting": "[4]; Table 6, replicate culture 3", "value": 100, "unit": "%"}, {"measurement": "Peak Area by HPLC Pre-overlay", "setting": "[4]; Table 6 triplicate cultures, stock", "value": 4142}]}]}
